Measurements taken from patent US8658646B2, “Pyrrolopyrazine kinase inhibitors” (Hoffmann-LaRoche Inc., priority 2011, dated 2014).
Counter-ions that a name gives are not always drawn.

These compounds were tested against T1, recombinant human SYK360-635 (Homo sapiens, UniProt P43405) (assay: Determination of IC50 of Spleen Tyrosine Kinase (SYK) inhibition, 33P ATP filtration assay). Details: SYK aa 360-635 0.5 nM; ATP 20 μM, peptide 5 μM, 0.1% BSA; read-out: SYK_ENZYME_FILTRATION/v1, BSA.
T1 construct: made in house
Type: biochemical

Compound | IC50
COc1ccc2c(c1)c(-c1cnc3[nH]cc(C(=O)N[C@@H]4CCCC[C@@H]4N)c3n1)nn2C [Example I-291, 2-(5-Methoxy-1-methyl-1H-indazol-3-yl)-5H-pyrrolo[2,3-b]pyrazine-7-carboxylic acid ((1R,2S)-2-amino-cyclohexyl)-amide] | 1000 nM
CC(C)(C)NC(=O)c1c[nH]c2ncc(-c3nn(CCCN4CCC(F)(F)C4)c4ccc(OC(F)F)cc34)nc12 [Example I-343, 2-{5-Difluoromethoxy-1-[3-(3,3-difluoro-pyrrolidin-1-yl)-propyl]-1H-indazol-3-yl}-5H-pyrrolo[2,3-b]pyrazine-7-carboxylic acid tert-butylamide] | 37 nM
Cn1nc(-c2cnc3[nH]cc(C(=O)NC4(C(C)(C)O)CCC4)c3n2)c2ccc(F)cc21 [Example I-255, 2-(6-Fluoro-1-methyl-1H-indazol-3-yl)-5H-pyrrolo[2,3-b]pyrazine-7-carboxylic acid [1-(1-hydroxy-1-methyl-ethyl)-cyclobutyl]-amide] | 607 nM
Cc1ccc2c(-c3cnc4[nH]cc(C(=O)NC(C)(C)CN)c4n3)n[nH]c2c1 [Example I-435, 2-(6-Methyl-1H-indazol-3-yl)-5H-pyrrolo[2,3-b]pyrazine-7-carboxylic acid (2-amino-1,1-dimethyl-ethyl)-amide] | 16.7 nM
COc1ccc2c(cnn2-c2cnc3[nH]cc(C(=O)NC(C)(C)C)c3n2)c1 [Example I-323, 2-(5-Methoxy-indazol-1-yl)-5H-pyrrolo[2,3-b]pyrazine-7-carboxylic acid tert-butylamide] | 25.6 nM
CCn1nc(-c2cnc3[nH]cc(C(=O)NC(C)C)c3n2)c2ccc(Cl)cc21 [Example I-307, 2-(6-Chloro-1-ethyl-1H-indazol-3-yl)-5H-pyrrolo[2,3-b]pyrazine-7-carboxylic acid isopropylamide] | 32.6 nM
Cc1ccc2c(-c3cnc4[nH]cc(C(=O)NC(C)(C)CN(C)C)c4n3)nn(C)c2c1 [Example I-430, 2-(1,6-Dimethyl-1H-indazol-3-yl)-5H-pyrrolo[2,3-b]pyrazine-7-carboxylic acid (2-dimethylamino-1,1-dimethyl-ethyl)-amide] | 1360 nM
CC(C)(CO)NC(=O)c1c[nH]c2ncc(-n3ncc4cc(Cl)ccc43)nc12 [Example I-318, 2-(5-Chloro-indazol-1-yl)-5H-pyrrolo[2,3-b]pyrazine-7-carboxylic acid (2-hydroxy-1,1-dimethyl-ethyl)-amide] | 56.8 nM
CN1CCN(C(=O)Cn2nc(-c3cnc4[nH]cc(C(=O)NC(C)(C)C)c4n3)c3cc(OC(F)F)ccc32)CC1 [Example I-353, 2-{5-Difluoromethoxy-1-[2-(4-methyl-piperazin-1-yl)-2-oxo-ethyl]-1H-indazol-3-yl}-5H-pyrrolo[2,3-b]pyrazine-7-carboxylic acid tert-butylamide] | 56.3 nM
Cn1nc(-c2cnc3[nH]cc(C(=O)NC4(C)CCNC4)c3n2)c2ccc(F)cc21 (stereo not drawn) [Example I-406, 2-(6-Fluoro-1-methyl-1H-indazol-3-yl)-5H-pyrrolo[2,3-b]pyrazine-7-carboxylic acid (3-methyl-pyrrolidin-3-yl)-amide] | 87.3 nM
COCC(COC)NC(=O)c1c[nH]c2ncc(-c3nn(C)c4cc(Cl)ccc34)nc12 [Example I-166, 2-(6-Chloro-1-methyl-1H-indazol-3-yl)-5H-pyrrolo[2,3-b]pyrazine-7-carboxylic acid (2-methoxy-1-methoxymethyl-ethyl)-amide] | 106 nM
Cn1nc(-c2cnc3[nH]cc(C(=O)NC(C)(C)C(=O)O)c3n2)c2ccc(F)cc21 [Example I-382, 2-{[2-(6-Fluoro-1-methyl-1H-indazol-3-yl)-5H-pyrrolo[2,3-b]pyrazine-7-carbonyl]-amino}-2-methyl-propionic acid] | 945 nM
Cn1nc(-c2cnc3[nH]cc(C(=O)NC4CCCC(N)C4)c3n2)c2ccc(Cl)cc21 (stereo not drawn) [Example I-403, 2-(6-Chloro-1-methyl-1H-indazol-3-yl)-5H-pyrrolo[2,3-b]pyrazine-7-carboxylic acid (3-amino-cyclohexyl)-amide] | 13.6 nM
CC(C)(C)NC(=O)c1c[nH]c2ncc(-n3ncc4cc(Cl)ccc43)nc12 [Example I-324, 2-(5-Chloro-indazol-1-yl)-5H-pyrrolo[2,3-b]pyrazine-7-carboxylic acid tert-butylamide] | 108 nM
Cn1nc(-c2cnc3[nH]cc(C(=O)NC(C)(C)CN)c3n2)c2ccc(Cl)cc21 [Example I-397, 2-(6-Chloro-1-methyl-1H-indazol-3-yl)-5H-pyrrolo[2,3-b]pyrazine-7-carboxylic acid (2-amino-1,1-dimethyl-ethyl)-amide] | 219 nM
CC(C)NC(=O)c1c[nH]c2ncc(-c3c4c(n(C)[n+]3[O-])CCCC4)nc12 [Example I-293, 2-(1-Methyl-2-oxy-4,5,6,7-tetrahydro-1H-indazol-3-yl)-5H-pyrrolo[2,3-b]pyrazine-7-carboxylic acid isopropylamide] | 2710 nM
Cn1nc(-c2cnc3[nH]cc(C(=O)N[C@H]4CC[C@@H](N)CC4)c3n2)c2cc(OC(F)F)ccc21 [Example I-402, 2-(5-Difluoromethoxy-1-methyl-1H-indazol-3-yl)-5H-pyrrolo[2,3-b]pyrazine-7-carboxylic acid (cis-4-amino-cyclohexyl)-amide] | 101 nM
CCNC(=O)c1c[nH]c2ncc(-c3nn(CCCN(C)C)c4ccc(OC(F)F)cc34)nc12 [Example I-453, 2-(5-(Difluoromethoxy)-1-(3-(dimethylamino)propyl)-1H-indazol-3-yl)-N-ethyl-5H-pyrrolo[3,2-b]pyrazine-7-carboxamide trifluoroacetate] | 85.7 nM
Cn1nc(-c2cnc3[nH]cc(C(=O)NC(CO)CO)c3n2)c2ccc(Cl)cc21 [Example I-316, 2-(6-Chloro-1-methyl-1H-indazol-3-yl)-5H-pyrrolo[2,3-b]pyrazine-7-carboxylic acid (2-hydroxy-1-hydroxymethyl-ethyl)-amide] | 14.6 nM
Cc1ccc2c(-c3cnc4[nH]cc(C(=O)NC(C)(C)CN(C)C)c4n3)n[nH]c2c1 [Example I-436, 2-(6-Methyl-1H-indazol-3-yl)-5H-pyrrolo[2,3-b]pyrazine-7-carboxylic acid (2-dimethylamino-1,1-dimethyl-ethyl)-amide] | 47.9 nM
C[C@@H](NC(=O)c1c[nH]c2ncc(-c3nn(C)c4cc(C#N)ccc34)nc12)C(=O)N1CC(C#N)C1 [Example I-22, 2-(6-Cyano-1-methyl-1H-indazol-3-yl)-5H-pyrrolo[2,3-b]pyrazine-7-carboxylic acid [(R)-2-(3-cyano-azetidin-1-yl)-1-methyl-2-oxo-ethyl]-amide] | 45.7 nM

Results, then the compound that gave them:

IC50 | Compound
5.25 nM | CC(C)(CO)NC(=O)c1c[nH]c2ncc(-c3n[nH]c4cc(Cl)ccc34)nc12 [Example I-414, 2-(6-Chloro-1H-indazol-3-yl)-5H-pyrrolo[2,3-b]pyrazine-7-carboxylic acid (2-hydroxy-1,1-dimethyl-ethyl)-amide]
2.7 nM | CC(O)CCn1nc(-c2cnc3[nH]cc(C(=O)NC(C)(C)C)c3n2)c2cc(OC(F)F)ccc21 (stereo not drawn) [Example I-447, N-tert-Butyl-2-(5-(difluoromethoxy)-1-(3-hydroxybutyl)-1H-indazol-3-yl)-5H-pyrrolo[3,2-b]pyrazine-7-carboxamide]
7.25 nM | CC(C)NC(=O)c1c[nH]c2ncc(-c3n[nH]c4cc(Cl)ccc34)nc12 [Example I-306, 2-(6-Chloro-1H-indazol-3-yl)-5H-pyrrolo[2,3-b]pyrazine-7-carboxylic acid isopropylamide]
13.3 nM | Cc1ccc2c(-c3cnc4[nH]cc(C(=O)NC(C)(C)C)c4n3)nn(CCCN(C)C)c2c1 [Example I-427, 2-[1-(3-Dimethylamino-propyl)-6-methyl-1H-indazol-3-yl]-5H-pyrrolo[2,3-b]pyrazine-7-carboxylic acid tert-butylamide]
11.9 nM | COC[C@H](C)NC(=O)c1c[nH]c2ncc(-c3nn(C)c4ccc(C5CC5)cc34)nc12 [Example I-194, 2-(5-Cyclopropyl-1-methyl-1H-indazol-3-yl)-5H-pyrrolo[2,3-b]pyrazine-7-carboxylic acid ((S)-2-methoxy-1-methyl-ethyl)-amide]
5.12 nM | Cc1cccc2c(-c3cnc4[nH]cc(C(=O)NC(C)(C)CO)c4n3)n[nH]c12 [Example I-372, 2-(7-Methyl-1H-indazol-3-yl)-5H-pyrrolo[2,3-b]pyrazine-7-carboxylic acid (2-hydroxy-1,1-dimethyl-ethyl)-amide]
10.2 nM | Cn1nc(-c2cnc3[nH]cc(C(=O)NC4(C)CCCCC4)c3n2)c2ccc(F)cc21 [Example I-392, 2-(6-Fluoro-1-methyl-1H-indazol-3-yl)-5H-pyrrolo[2,3-b]pyrazine-7-carboxylic acid (1-methyl-cyclohexyl)-amide]
3.22 nM | COc1ccc2c(c1)c(-c1cnc3[nH]cc(C(=O)NC(C)(C)C)c3n1)nn2C [Example I-287, 2-(5-Methoxy-1-methyl-1H-indazol-3-yl)-5H-pyrrolo[2,3-b]pyrazine-7-carboxylic acid tert-butylamide]
12.6 nM | Cn1nc(-c2cnc3[nH]cc(C(=O)NC(C)(C)C)c3n2)c2c1CCCC2 [Example I-295, 2-(1-Methyl-4,5,6,7-tetrahydro-1H-indazol-3-yl)-5H-pyrrolo[2,3-b]pyrazine-7-carboxylic acid tert-butylamide]
5.6 nM | Cc1ccc2c(-c3cnc4[nH]cc(C(=O)NC5(CO)CC5)c4n3)n[nH]c2c1 [Example I-432, 2-(6-Methyl-1H-indazol-3-yl)-5H-pyrrolo[2,3-b]pyrazine-7-carboxylic acid (1-hydroxymethyl-cyclopropyl)-amide]
4.67 nM | CC(C)(C)NC(=O)c1c[nH]c2ncc(-c3nn(Cc4cccnc4)c4ccc(OC(F)F)cc34)nc12 [Example I-264, 2-(5-Difluoromethoxy-1-pyridin-3-ylmethyl-1H-indazol-3-yl)-5H-pyrrolo[2,3-b]pyrazine-7-carboxylic acid tert-butylamide]
8.57 nM | Cn1nc(-c2cnc3[nH]cc(C(=O)NC(C)(C)CCO)c3n2)c2ccc(F)cc21 [Example I-400, 2-(6-Fluoro-1-methyl-1H-indazol-3-yl)-5H-pyrrolo[2,3-b]pyrazine-7-carboxylic acid (3-hydroxy-1,1-dimethyl-propyl)-amide]
